Data on five molecules can be found in paper PMC8419314, “Characterization of Compound-Specific, Concentration-Independent Biophysical Properties of Sodium Channel Inhibitor Mechanism of Action Using Automated Patch-Clamp Electrophysiology” (Frontiers in Pharmacology, 2021).

The target in assay [1] is T1, rNaV1.4 channel (Rattus norvegicus, UniProt P15390).
T1 construct: expressed in transfected cells; host or cells: HEK 293
The assay can be described thus: automated patch-clamp 17-pulse protocol (SDO, RFI, SSI), IonFlux Mercury, cell ensembles. In kind it is cell-based. The settings on record: for Ki: inactivated-state affinity, calculated with equation of Bean et al. (1983). As for the experimental part: Cell culture and electrophysiology were done as described in the accompanying paper ([Lukacs et al., 2021]). The recombinant rNaV1.4 channel-expressing cell line was generated as described before ([Lukacs et al., 2018]). Transfected HEK 293 cells were maintained in Dulbecco’s Modified Eagle Medium, high glucose supplemented with 10% v/v fetal bovine serum, 100 U/ml of penicillin/streptomycin, and 0.4 mg/ml Geneticin (Life Technologies, Carlsbad, CA). For experiments, cells were dissociated from culture dishes with Accutase (Corning), shaken in serum-free medium for 60 min at room temperature, then centrifuged, and resuspended into the extracellular solution to a concentration of 5 × 10^6 cells/mL. Voltage-clamp recordings were performed on an IonFlux Mercury instrument (Fluxion Biosciences). The composition of solutions (in mM) was: Intracellular solution: 50 CsCl, 10 NaCl, 60 CsF, 20 EGTA, and 10 HEPES; pH 7.2 (adjusted with 1 M CsOH). Extracellular solution: 140 NaCl, 4 KCl, 1 MgCl2, 2 CaCl2, 5 D-Glucose, and 10 HEPES; pH 7.4 (adjusted with 1 M NaOH). The osmolality of intra-and extracellular solutions was set to ∼320 and ∼330 mOsm, respectively. Data were sampled at 20 kHz, and filtered at 10 kHz. Experiments were carried out at room temperature.
Each zone consists of 8 separate sections, which are distinct functional units, containing 12 wells: one well for the cell suspension, one well for the waste, two cell “traps” (intracellular solution-filled wells under negative pressure to establish high resistance seals and then whole-cell configuration), and eight compound wells. […] Two kinds of microfluidic plates are manufactured: In single-cell plates, each cell trap contains a single hole and therefore catches a single cell. In “ensemble plates” there are 20 holes in each cell trap, and 20 cells are recorded simultaneously. […] From the 16 cell ensembles of each zone, we chose n = 6 ensembles for analysis.
We used a complex 17-pulse voltage protocol (Figure 1A), described in detail in the accompanying paper ([Lukacs et al., 2021]), which allowed the assessment of gating kinetics and gating equilibrium in the absence and the presence of inhibitor/modulator compounds. The protocol investigated the effect of different durations of depolarizations: 2.5, 7.5, 22.5, and 67.5 ms with 2.5 ms hyperpolarizing gaps between them; this section (pulses #1 to #5) is shown by different shades of green in Figure 1, and was named “state-dependent onset” (SDO). Next, pulses #6 to #12, as well as #1 investigated the effect of different durations of hyperpolarizations (1, 2, 4, 8, 16, 32, 64, and 498 ms, separated by 5 ms depolarizations) in the section shown by different shades of blue, and named “recovery from inactivation” (RFI). Finally, pulses #12 to #17 assessed the resting-inactivated equilibrium at different membrane potentials in the section named “steady-state inactivation” (SSI). The three sections were similar to protocols we used in previous studies ([Lukacs et al., 2018]; [Földi et al., 2021]).
In addition to automatic fitting, described in the accompanying paper ([Lukacs et al., 2021]), in this study we used a different approach to process SDO, RFI, and SSI data. This analysis focused on deriving compound-specific but concentration-independent descriptors of the mechanism of action, which can lead to a more thorough understanding of the sub-processes involved in drug action, and which can later serve as a basis for constructing kinetic models for the simulation of drug-specific effects. All data analysis was done in Microsoft Excel (RRID:SCR_016137) environment, using VBA routines to accelerate repetitive data management tasks. For each of the 17 pulses peak amplitudes were measured after removing capacitive artifacts and subtracting the leak.

The test system of assay [2] is sodium channel. The settings on record: from 10 Hz to 50 Hz; ref Desaphy et al. (2014); cited from earlier work.
Assay [3] addresses T1, rNaV1.4 channel. Kind of assay: automated patch-clamp 17-pulse protocol (SDO, RFI, SSI), IonFlux Mercury, cell ensembles. The class given is cell-based. Particulars: pulse #5, SDO section; read-out: IC50 #5 (after 65.7 ms depol.).
In assay [4] the target is sodium channel. Also on record: method as in Vladimirov et al., 2000. Particulars: resting-state; ref Vladimirov et al., 2000; read-out: KR; cited from earlier work.
In assay [5] the target is sodium channel. More on the design: method as in Lenkey et al., 2010. Particulars: resting-state; ref Lenkey et al., 2010; read-out: KR; cited from earlier work.
[6] abbreviates: 1st pulse-evoked current, resting-state estimate, n = 6 ensembles, read-out: IC50 #1 (estimated KR).
Where [7] appears, read: pulse #7, RFI section, read-out: IC50 #7 (after 1 ms hyperpol.).
The mark [8] stands for this setting: pulse #17, SSI section, read-out: IC50 #17 (−70 mV).
[9] abbreviates: time range within which effective inhibitor potency changes upon depolarization.
Setting [10] is: time range within which effective inhibitor potency changes upon hyperpolarization.

“And” between values parts separate entries of the source, which are not always exact repeats. Equal entries are not always repeated. Where two headings read alike, the source gives them in different places.

T1 sequence (P15390 whole entry): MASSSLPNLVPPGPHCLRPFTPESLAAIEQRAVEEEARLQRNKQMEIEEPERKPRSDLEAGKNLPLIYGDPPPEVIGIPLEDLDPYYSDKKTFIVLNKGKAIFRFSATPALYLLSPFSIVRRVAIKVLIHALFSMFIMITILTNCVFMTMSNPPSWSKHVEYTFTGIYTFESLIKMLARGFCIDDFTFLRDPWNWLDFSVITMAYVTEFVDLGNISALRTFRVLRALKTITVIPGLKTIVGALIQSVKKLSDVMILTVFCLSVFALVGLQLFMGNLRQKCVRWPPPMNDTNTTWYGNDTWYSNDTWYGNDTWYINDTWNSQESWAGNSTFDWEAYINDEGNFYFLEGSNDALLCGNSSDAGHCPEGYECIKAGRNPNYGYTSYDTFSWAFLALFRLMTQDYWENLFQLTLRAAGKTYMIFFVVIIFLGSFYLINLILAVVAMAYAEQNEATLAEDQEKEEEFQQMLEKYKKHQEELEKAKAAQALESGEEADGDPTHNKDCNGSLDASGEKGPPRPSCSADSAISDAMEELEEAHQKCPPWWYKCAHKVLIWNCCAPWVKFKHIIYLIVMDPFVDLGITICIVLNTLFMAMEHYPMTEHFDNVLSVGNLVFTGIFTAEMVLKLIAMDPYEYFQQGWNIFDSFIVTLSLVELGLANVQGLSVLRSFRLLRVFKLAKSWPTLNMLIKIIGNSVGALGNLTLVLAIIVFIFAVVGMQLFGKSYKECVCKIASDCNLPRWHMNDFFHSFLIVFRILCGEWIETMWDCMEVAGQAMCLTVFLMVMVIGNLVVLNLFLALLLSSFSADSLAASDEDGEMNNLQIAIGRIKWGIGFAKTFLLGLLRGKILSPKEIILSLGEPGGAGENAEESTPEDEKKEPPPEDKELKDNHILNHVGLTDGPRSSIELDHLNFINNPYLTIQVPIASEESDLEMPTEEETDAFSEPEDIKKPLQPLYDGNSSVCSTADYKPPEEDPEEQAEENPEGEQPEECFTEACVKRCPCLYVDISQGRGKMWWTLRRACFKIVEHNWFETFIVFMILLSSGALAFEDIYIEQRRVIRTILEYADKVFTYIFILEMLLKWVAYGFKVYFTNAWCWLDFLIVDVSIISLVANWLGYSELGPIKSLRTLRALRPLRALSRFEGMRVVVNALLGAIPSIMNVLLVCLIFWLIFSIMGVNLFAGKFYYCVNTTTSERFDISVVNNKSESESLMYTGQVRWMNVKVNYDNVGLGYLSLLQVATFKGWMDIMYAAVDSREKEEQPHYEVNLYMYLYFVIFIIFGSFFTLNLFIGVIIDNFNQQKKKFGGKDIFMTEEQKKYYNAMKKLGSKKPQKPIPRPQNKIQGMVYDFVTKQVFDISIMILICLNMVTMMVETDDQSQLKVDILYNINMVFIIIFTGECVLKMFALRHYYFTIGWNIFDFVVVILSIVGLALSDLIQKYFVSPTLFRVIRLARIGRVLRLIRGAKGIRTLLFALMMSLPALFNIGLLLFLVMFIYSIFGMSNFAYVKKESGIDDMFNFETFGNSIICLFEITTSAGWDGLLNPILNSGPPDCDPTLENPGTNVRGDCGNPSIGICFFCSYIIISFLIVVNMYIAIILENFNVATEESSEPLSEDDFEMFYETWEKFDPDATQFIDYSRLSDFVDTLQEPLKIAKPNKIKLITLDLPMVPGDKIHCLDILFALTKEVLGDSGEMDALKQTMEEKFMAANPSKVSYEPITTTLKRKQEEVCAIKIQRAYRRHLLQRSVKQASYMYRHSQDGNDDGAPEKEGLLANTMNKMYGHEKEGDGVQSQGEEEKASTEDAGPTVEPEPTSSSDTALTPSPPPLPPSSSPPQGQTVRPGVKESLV

Turning to `Nc1nc2ccc(OC(F)(F)F)cc2s1` [Riluzole, riluzole], the “inhibition, pulses #1, #6 and #12” value at rNaV1.4 channel [1] (100 µM, single cell ensemble) is on record as “no inhibition”. For the same molecule, at rNaV1.4 channel [1] (100 µM, single cell ensemble), the “inhibition, pulses #7 and #17” value is listed as “almost full inhibition”. The IC50 was 1360 µM on rNaV1.4 channel [1] (setting [6]), 42.1 ± 3.62 µM on rNaV1.4 channel [1] (setting [7]), 6.86 ± 4.36 µM at rNaV1.4 channel [1] (setting [8]) and 27.4 ± 6.44 µM on rNaV1.4 channel [3]. For the same molecule, the Ki at rNaV1.4 channel [1] was 5.63 ± 3.35 µM. For the same molecule, on rNaV1.4 channel [1] (offset upon drug washout), the macro-offset time constant was determined as 13.6 ± 0.71 s. The “increase of apparent affinity” value with sodium channel [2] was 48 fold.

`CCOC(=O)c1ccc(N)cc1` [Benzocaine, benzocaine]: the “fraction of channels inhibited” value at rNaV1.4 channel [1] (100 µM, indicated by KI calculated from SSI data) is on record as “more than half”. For the same molecule, the IC50 at rNaV1.4 channel [1] (setting [6]) was 2240 µM; at rNaV1.4 channel [1] (setting [7]), 290 ± 22.3 µM; on rNaV1.4 channel [1] (setting [8]), 170 ± 10.3 µM; on rNaV1.4 channel [3] it was 1300 µM. Further, the channels recovered on rNaV1.4 channel [1] (at 2 ms gap duration) is given as 70–90%. Moreover, on rNaV1.4 channel [1], the Ki was 79.4 ± 3.9 µM. Besides, the “time for micro-offset to be complete” value at rNaV1.4 channel [1] (offset of effect upon hyperpolarization) is not above 4 ms. Moreover, the macro-offset time constant on rNaV1.4 channel [1] (offset upon drug washout) amounted to 1.42 ± 0.59 s. For the same molecule, the “time for micro-onset to be complete” value on rNaV1.4 channel [1] (onset of effect upon depolarization) is recorded as not above 2.5 ms. Besides, the KR/KI ratio on rNaV1.4 channel [1] (state-dependence) is 28.3 ± 3.8; at rNaV1.4 channel [1] (state-dependence, listed as benzocaine), 28.3. Moreover, the micro-onset range at rNaV1.4 channel [1] (setting [9]) was in the range of 0.1 to 2 ms. The molecule also gave a micro-offset range at rNaV1.4 channel [1] (setting [10]) of 0.1 to 4 ms.

For `NC1=N[C@H](O)[C@H]2[C@H]3O[C@]4(O)O[C@@H]([C@@H](O)[C@@]2(N1)[C@@H]4O)[C@]3(O)CO` [Tetrodotoxin, tetrodotoxin], on rNaV1.4 channel [1], the KR/KI ratio is 1.7 ± 0.11; the “extent of change of EIP during SDO, RFI and SSI sections” value is listed as “less than 2 fold”; the macro-offset time constant is listed as 22.9 ± 1.50 s; the micro-offset range was in the range of 1 to 10 ms. In addition, at rNaV1.4 channel [1], the micro-onset range fell in the range of 1 to 100 ms. Also, at rNaV1.4 channel [1] (read-out: IC50 #1 (estimated KR)), the IC50 was 0.028 µM. The 50% inhibitory concentration (IC50) on rNaV1.4 channel [1] (read-out: IC50 #5 (after 65.7 ms depol.)) amounted to 0.015 µM. Moreover, the IC50 at rNaV1.4 channel [1] (read-out: IC50 #7 (after 1 ms hyperpol.)) was 0.018 µM. Further, at rNaV1.4 channel [1] (read-out: IC50 #17 (−70 mV)), the IC50 is 0.018 µM.

Regarding `CCCCN1CCCCC1C(=O)Nc1c(C)cccc1C` (stereo not shown) [Bupivacaine, bupivacaine], the 50% inhibitory concentration (IC50) at rNaV1.4 channel [1] (setting [6]) was 94.6 ± 10.7 µM; on rNaV1.4 channel [1] (setting [7]), 33.5 ± 2.32 µM; on rNaV1.4 channel [1] (setting [8]), 16.3 ± 1.7 µM; on rNaV1.4 channel [3], 27.3 ± 1.45 µM. The Ki on rNaV1.4 channel [1] is 12.7 ± 1.22 µM. For the same molecule, the macro-offset time constant at rNaV1.4 channel [1] (offset upon drug washout) was determined as 3.56 ± 0.43 s; at rNaV1.4 channel [1] (offset upon drug washout, listed as bupivacaine) it was 3.56 s. Besides, the KR/KI ratio on rNaV1.4 channel [1] (state-dependence) amounted to 7.48 ± 0.68; at rNaV1.4 channel [1] (state-dependence, listed as bupivacaine) it was 7.48. The micro-onset range at rNaV1.4 channel [1] (setting [9]) is 100–1,000 ms. For the same molecule, the micro-offset range at rNaV1.4 channel [1] (setting [10]) is on record as 100–1,000 ms. Besides, the values for the Kd on sodium channel [4] and on sodium channel [5] were approximately 317 µM and approximately 619 µM, respectively.

With `CCN(CC)CC(=O)Nc1c(C)cccc1C` [Lidocaine, lidocaine], on rNaV1.4 channel [1], the KR/KI ratio is 69.7 and 69.7 ± 20.9; the macro-offset time constant was found to be 1.72 ± 0.05 s; the micro-offset range lay in the range of 10 to 500 ms; the micro-onset range fell in the range of 1 to 100 ms. In addition, on rNaV1.4 channel [1], the “time for micro-onset to be complete” value is listed as “more than 100 ms” and the Ki was 18.4 ± 1.52 µM. At rNaV1.4 channel [1] (setting [6]), the half-maximal inhibitory concentration (IC50) was 1280 µM. Also, the 50% inhibitory concentration (IC50) on rNaV1.4 channel [1] (setting [7]) stood at 71.7 ± 5.83 µM. The IC50 at rNaV1.4 channel [1] (setting [8]) worked out at 22.8 ± 2.04 µM. Further, the concentration for half-maximal inhibition (IC50) on rNaV1.4 channel [3] came out at 31.9 ± 2.28 µM.

A word on the IC50: it is the concentration that gives 50% inhibition.
